Experimental data reported in ChEMBL document CHEMBL1201862, “PubChem BioAssay data set” (2004).
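1) Cells in 96-well plates. 2) Compound, 48 h, 5 concentrations. 3) Linear interpolation between surrounding doses. 4) Unreached endpoint = highest concentration. Here, GI50 denotes the concentration required for 50% inhibition of growth.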 Active and inactive are the calls of the source. Cut-off read from the data, not from the text of the source: active = GI50 up to about 1.1 µM and inactive = higher.

Assays:
Assay in all cases: NCI tumour cell line growth inhibition, 48 h
[1] = tested on: DMS-114
[2] = tested on: OVCAR-3
[3] = tested on: LOX IMVI
[4] = tested on: OVCAR-8
[5] = tested on: OVCAR-5
[6] = tested on: NCI-H460
[7] = tested on: HT-29
[8] = tested on: HL-60
[9] = tested on: SK-OV-3
[10] = tested on: CCRF-CEM
[11] = tested on: COLO 205
[12] = tested on: SN12C
[13] = tested on: HCC 2998
[14] = tested on: KM12
[15] = tested on: K562
[16] = tested on: NCI-H23
[17] = tested on: HOP-62
[18] = tested on: MCF7
[19] = tested on: SR
[20] = tested on: BT-549

| Compound | GI50 [1] | GI50 [2] | GI50 [3] | GI50 [4] | GI50 [5] | GI50 [6] | GI50 [7] | GI50 [8] | GI50 [9] | GI50 [10] | GI50 [11] | GI50 [12] | GI50 [13] | GI50 [14] | GI50 [15] | GI50 [16] | GI50 [17] | GI50 [18] | GI50 [19] | GI50 [20] |
| --- | --- | --- | --- | --- | --- | --- | --- | --- | --- | --- | --- | --- | --- | --- | --- | --- | --- | --- | --- | --- |
| CCCCCCCCCCCCCCCCc1c(O)nc(NN)nc1C(=O)OC | > 50 µM (inactive) | > 50 µM (inactive) | > 50 µM (inactive) | > 50 µM (inactive) | > 50 µM (inactive) | > 50 µM (inactive) | > 50 µM (inactive) | > 50 µM (inactive) | > 50 µM (inactive) | > 50 µM (inactive) | > 50 µM (inactive) | > 50 µM (inactive) | > 50 µM (inactive) | > 50 µM (inactive) | > 50 µM (inactive) | > 50 µM (inactive) | > 50 µM (inactive) |  |  |  |
| O=C1CC(c2c(-c3ccccc3)[nH]c3ccccc23)C(=O)N1c1ccccc1 (configuration not stated) | 49.5 µM (inactive) | 61.5 µM (inactive) |  | > 100 µM (inactive) | > 100 µM (inactive) | 56.2 µM (inactive) | > 100 µM (inactive) | 44.6 µM (inactive) | > 100 µM (inactive) | 63.7 µM (inactive) |  |  | > 100 µM (inactive) | 44.4 µM (inactive) | 57.1 µM (inactive) | 78.7 µM (inactive) | 25.6 µM (inactive) |  |  |  |
| NC1CSc2ccccc2NC1=O (configuration not stated) |  | > 100 µM (inactive) | > 100 µM (inactive) | > 100 µM (inactive) | > 100 µM (inactive) | > 100 µM (inactive) | > 100 µM (inactive) | > 100 µM (inactive) | > 100 µM (inactive) | > 100 µM (inactive) | > 100 µM (inactive) | > 100 µM (inactive) | > 100 µM (inactive) | > 100 µM (inactive) | > 100 µM (inactive) | > 100 µM (inactive) | > 100 µM (inactive) | > 100 µM (inactive) | > 100 µM (inactive) | > 100 µM (inactive) |
| C/C(CC(=O)Nc1ccc(C)cc1)=N\NC(N)=S | > 100 µM (inactive) | > 100 µM (inactive) | 54.8 µM (inactive) | > 100 µM (inactive) | > 100 µM (inactive) | > 100 µM (inactive) | > 100 µM (inactive) | > 100 µM (inactive) | > 100 µM (inactive) | > 100 µM (inactive) | > 100 µM (inactive) |  | > 100 µM (inactive) | 77.4 µM (inactive) | 64.4 µM (inactive) | > 100 µM (inactive) | > 100 µM (inactive) |  |  |  |
| CC(=O)O[C@H]1C#C/C=C\C#CC[C@@H]2C(=O)N(C(=O)OC(C)(C)C)[C@@H]12 |  | 41.1 µM (inactive) | 13.1 µM (inactive) | 14.5 µM (inactive) | > 100 µM (inactive) | 0.25 µM (active) | 36.1 µM (inactive) | 2.45 µM (inactive) | 62.4 µM (inactive) | 1.52 µM (inactive) | 22.2 µM (inactive) | 18.8 µM (inactive) | 19.5 µM (inactive) | 53.7 µM (inactive) | 25.7 µM (inactive) | 12.6 µM (inactive) | 7.11 µM (inactive) | 2.34 µM (inactive) | 24 µM (inactive) | 33.5 µM (inactive) |
| Nc1nnc2oc3ccc4ccccc4c3cc1-2 |  | 34.8 µM (inactive) | 23.5 µM (inactive) | 32.4 µM (inactive) | 57.1 µM (inactive) | 27 µM (inactive) | 38.2 µM (inactive) | 21.9 µM (inactive) | 67.5 µM (inactive) | 24.5 µM (inactive) | 23.6 µM (inactive) | 22.9 µM (inactive) | 20.3 µM (inactive) | 29.7 µM (inactive) | 37.5 µM (inactive) | 42.8 µM (inactive) | > 100 µM (inactive) | 28 µM (inactive) | 23.1 µM (inactive) | 33.8 µM (inactive) |
| Cc1ccc(SSCCCCS(=O)O)cc1 | 11.5 µM (inactive) | 17.8 µM (inactive) | 9.79 µM (inactive) | > 10 µM (inactive) | 45.4 µM (inactive) | 32.5 µM (inactive) | 21.7 µM (inactive) | 3.89 µM (inactive) | 34.2 µM (inactive) | 5.74 µM (inactive) | 19.5 µM (inactive) | 11.4 µM (inactive) | 25.1 µM (inactive) | 18.2 µM (inactive) | 24.3 µM (inactive) | 17.9 µM (inactive) | 28.7 µM (inactive) |  |  |  |
| O=[N+]([O-])c1ccc(O)c(/C=N/NC(=S)N2CCCCC2)c1 |  | 2.24 µM (inactive) | 1.57 µM (inactive) | 1.8 µM (inactive) | 16 µM (inactive) | 4.81 µM (inactive) | 2.33 µM (inactive) | 0.282 µM (active) | 4.8 µM (inactive) | 0.728 µM (active) | 2.38 µM (inactive) | 3.13 µM (inactive) | 7.73 µM (inactive) | 3.59 µM (inactive) | 4.95 µM (inactive) | 3.61 µM (inactive) | 5.74 µM (inactive) | 4.55 µM (inactive) | 2.43 µM (inactive) | 6.14 µM (inactive) |
| CCOC(=O)C1=C(C)NC(=S)NC1c1cccc(O)c1 (configuration not stated) [MONASTROL] |  | 50.9 µM (inactive) | 72.8 µM (inactive) | 57.7 µM (inactive) | 76.6 µM (inactive) | 39.8 µM (inactive) | > 86.3 µM (inactive) | 25.7 µM (inactive) | 57.8 µM (inactive) | 34.7 µM (inactive) | 31.6 µM (inactive) | 35.5 µM (inactive) | 40 µM (inactive) | 35 µM (inactive) | 32.7 µM (inactive) | 59.8 µM (inactive) | 68.1 µM (inactive) | 30 µM (inactive) | 31.5 µM (inactive) | 56.6 µM (inactive) |
| Cn1c2ccc(F)cc2c2ccc3c(c21)C(=O)C=CC3=O |  | 7.21 µM (inactive) | 6.17 µM (inactive) | 9.35 µM (inactive) | 43.6 µM (inactive) | > 57.3 µM (inactive) | 19.5 µM (inactive) | 0.598 µM (active) | 61 µM (inactive) | 0.544 µM (active) | 7.08 µM (inactive) | 15.4 µM (inactive) | 26.9 µM (inactive) | 31.5 µM (inactive) | 1.63 µM (inactive) | 13.8 µM (inactive) | > 66.5 µM (inactive) | 2.2 µM (inactive) | 1.56 µM (inactive) | 14 µM (inactive) |
| Cc1ccc(C2SCC(=O)N2c2ccc(-n3c(-c4ccccc4)nc4ccccc4c3=O)cc2)cc1 (configuration not stated) |  | 13.2 µM (inactive) | 9.98 µM (inactive) | 16.2 µM (inactive) | 42.4 µM (inactive) | 9.42 µM (inactive) | 17.2 µM (inactive) | 19.5 µM (inactive) | 4.95 µM (inactive) | 8.18 µM (inactive) | 30.1 µM (inactive) | 37.8 µM (inactive) | 17.5 µM (inactive) | 16.6 µM (inactive) | 7.26 µM (inactive) | 36.4 µM (inactive) | 12.9 µM (inactive) | 22.6 µM (inactive) | 7.89 µM (inactive) | 20.2 µM (inactive) |
| COc1ccc2c(c1OC)C(C=C(c1ccccc1)c1ccccc1)CN(C)C2 (configuration not stated) | 13.9 µM (inactive) | 12.8 µM (inactive) |  | 20.4 µM (inactive) | 6.79 µM (inactive) | 11.7 µM (inactive) | 6.82 µM (inactive) |  | 27.4 µM (inactive) | 21.3 µM (inactive) | 14.5 µM (inactive) | 25.5 µM (inactive) | 24.9 µM (inactive) | 18.9 µM (inactive) | 6.21 µM (inactive) | 22.4 µM (inactive) | 20.6 µM (inactive) |  |  |  |
| COc1ccc2/c(=C/c3ccc(N(C)C)cc3)c3cc(-c4ccccc4)[n+](C)n3c2c1 |  | 0.0834 µM (active) | 0.161 µM (active) | 0.0568 µM (active) | 0.52 µM (active) | 0.245 µM (active) | 0.104 µM (active) | 0.0218 µM (active) | 0.282 µM (active) | 0.395 µM (active) | 0.0264 µM (active) | 0.223 µM (active) | 0.115 µM (active) | 0.192 µM (active) | 0.057 µM (active) | 0.158 µM (active) | 0.345 µM (active) | 0.126 µM (active) | 0.092 µM (active) | 0.0957 µM (active) |
| [N-]=[N+]=NC1(Cc2ccccc2)C(=O)c2cccc3c2N(CCC3)C1=O (configuration not stated) | > 100 µM (inactive) |  | > 100 µM (inactive) | > 100 µM (inactive) | > 100 µM (inactive) | > 100 µM (inactive) | > 100 µM (inactive) | > 100 µM (inactive) | 40.3 µM (inactive) | > 100 µM (inactive) | > 100 µM (inactive) | > 100 µM (inactive) |  | > 100 µM (inactive) | > 100 µM (inactive) | > 100 µM (inactive) | > 100 µM (inactive) |  | > 100 µM (inactive) |  |
| CCOC(=O)/C(C#N)=C(O)/C(=C/c1ccccc1Cl)NC(=O)c1ccccc1 | > 100 µM (inactive) | > 100 µM (inactive) |  | > 100 µM (inactive) | > 100 µM (inactive) | > 100 µM (inactive) | > 100 µM (inactive) | > 100 µM (inactive) | > 100 µM (inactive) | > 100 µM (inactive) | > 100 µM (inactive) | > 100 µM (inactive) | > 100 µM (inactive) | > 100 µM (inactive) | 88.1 µM (inactive) | > 100 µM (inactive) | > 100 µM (inactive) |  |  |  |
| CC(=O)OCC(OC(C)=O)C(OC(C)=O)C(OC(C)=O)C(/C=N\Nc1nc2ccccc2c(=O)[nH]1)OC(C)=O (configuration not stated) |  | > 100 µM (inactive) | > 100 µM (inactive) | > 100 µM (inactive) | > 100 µM (inactive) | > 100 µM (inactive) | > 100 µM (inactive) | > 100 µM (inactive) | > 100 µM (inactive) | > 100 µM (inactive) | > 100 µM (inactive) | > 100 µM (inactive) | > 100 µM (inactive) | 23.6 µM (inactive) | > 100 µM (inactive) | > 100 µM (inactive) | > 100 µM (inactive) | > 100 µM (inactive) | > 100 µM (inactive) | > 100 µM (inactive) |
